In patent US11905254B1, “1-(3-chlorobenzylideneamino)-5,5-diphenylimidazolidine-2,4-dione as an antimicrobial compound” (KING FAISAL UNIVERSITY, priority 2023, dated 2024):

What was measured:
Assay type in all cases: cell-based
Bacillus Cereus = assay: agar plate disc-diffusion, antibacterial activity by inhibition zone; details: nutrient agar, 37° C., 48 hours, DMSO control subtracted
Description: (§1) The agar plate disc-diffusion method was applied. […] The discs were then placed onto the surface of agar plates (nutrient agar for bacteria and Sabouraud's dextrose agar for fungi) seeded with the test organism. Each plate contained 15 mL of the agar medium, previously seeded with 0.2 mL of the broth culture of each organism pregrown for 18 hours. The plates were incubated at 37° C. for 48 hours, and 72 hours for fungi. The inhibition zones was measured in millimeter. Discs impregnated with DMSO were used as a control, and its inhibition zone was subtracted from the tested compound actual inhibition zone.
(§2) The results of the antimicrobial testing can be observed in Tables 1 and 2, below, with ciprofloxacin serving as a reference.

Escherichia coli = assay: as above; details: nutrient agar, 37° C., 48 hours, DMSO control subtracted
Description: as §1, §2

Pseudomonas aeruginosa = assay: as above; details: nutrient agar, 37° C., 48 hours, DMSO control subtracted
Description: as §1, §2

Staphylococcus aureus = assay: as above; details: nutrient agar, 37° C., 48 hours, DMSO control subtracted
Description: as §1, §2

Aspergillus flavus = assay: agar plate disc-diffusion, antifungal activity by inhibition zone; details: Sabouraud's dextrose agar, 37° C., 72 hours, DMSO control subtracted
Description: as §1, §2

[1] = system: Chrysosporium keratinophilum; assay: as above; details: Sabouraud's dextrose agar, 37° C., 72 hours, DMSO control subtracted
Description: as §1, §2

different microbes = assay: antimicrobial testing, overall statement on Tables 1 and 2; details: summary of Tables 1 and 2, bacteria and fungi
Description: The agar plate disc-diffusion method was applied. Sterilized filter papers (6 mm in diameter) were wetted with 10 μL of a solution of 1-(3-chlorobenzylideneamino)-5,5-diphenylimidazolidine-2,4-dione (4) to be tested, containing 10 mg/mL in DMSO, and the discs were allowed to air dry. The discs were then placed onto the surface of agar plates (nutrient agar for bacteria and Sabouraud's dextrose agar for fungi) seeded with the test organism. Each plate contained 15 mL of the agar medium, previously seeded with 0.2 mL of the broth culture of each organism pregrown for 18 hours. The plates were incubated at 37° C. for 48 hours, and 72 hours for fungi. The inhibition zones was measured in millimeter. Discs impregnated with DMSO were used as a control, and its inhibition zone was subtracted from the tested compound actual inhibition zone.
The antibacterial activity was screened against gram positive bacteria namely Bacillus cereus and Staphylococcus aureus and gram-negative bacterial strains namely Pseudomonas aeruginosa and Escherichia coli, while the antifungal activity was screened against Aspergillus flavus and Chrysosporium keratinophilum.

[2] = A = concentration of comp. = 10,000 μL
[3] = B = concentration of comp. = 30.000 μL
[4] = C = concentration of comp. = 50,000 μL

| Compound | inhibition zone (Bacillus Cereus; [2]) [millimeter] | inhibition zone (Bacillus Cereus; [3]) [millimeter] | inhibition zone (Bacillus Cereus; [4]) [millimeter] | inhibition zone (Escherichia coli; [2]) [millimeter] | inhibition zone (Escherichia coli; [3]) [millimeter] | inhibition zone (Escherichia coli; [4]) [millimeter] | inhibition zone (Pseudomonas aeruginosa; [2]) [millimeter] | inhibition zone (Pseudomonas aeruginosa; [3]) [millimeter] | inhibition zone (Pseudomonas aeruginosa; [4]) [millimeter] | inhibition zone (Staphylococcus aureus; [2]) [millimeter] | inhibition zone (Staphylococcus aureus; [3]) [millimeter] | inhibition zone (Staphylococcus aureus; [4]) [millimeter] | inhibition zone (Aspergillus flavus; [2]) [millimeter] | inhibition zone (Aspergillus flavus; [3]) [millimeter] | inhibition zone (Aspergillus flavus; [4]) [millimeter] | inhibition zone [1, 2] [millimeter] | inhibition zone [1, 3] [millimeter] | inhibition zone [1, 4] [millimeter] | antimicrobial activities (in words) (different microbes) |
| --- | --- | --- | --- | --- | --- | --- | --- | --- | --- | --- | --- | --- | --- | --- | --- | --- | --- | --- | --- |
| O=C(O)c1cn(C2CC2)c2cc(N3CCNCC3)c(F)cc2c1=O [Cip., ciprofloxacin, reference compound] | 29 | 30 | 42 | 30 | 39 | 60 | 29 | 30 | 53 | 43 | 44 | 53 | 29 | 30 | 42 | 29 | 30 | 53 | – |
| O=C1NC(=O)C(c2ccccc2)(c2ccccc2)N1/N=C/c1cccc(Cl)c1 [Compound 4, 1-(3-chlorobenzylideneamino)-5,5-diphenylimidazolidine-2,4-dione] | 26 | 28 | 39 | 24 | 30 | 46 | 23 | 24 | 42 | 24 | 30 | 40 | 20 | 24 | 35 | 24 | 25 | 41 | high antimicrobial activities |
